Reference: publication PMC3262104 (Journal of the American Chemical Society, 2011)

What was measured:
P-gp [1] = target: T1, P-gp (Homo sapiens, UniProt P08183); assay: Inhibition of P-gp-mediated efflux of calcein-AM in 12D7-MDR cells; format: cell-based
P-gp [2] = target: T1, P-gp; assay: [125I]IAAP photo-crosslinking competition, crude Sf9 membranes expressing P-gp; format: binding
HIV-1LAI = assay: Inhibition of HIV-1 replication, HIV p24 ELISA in infected 12D7 cells; format: cell-based; conditions: Human immunodeficiency virus 1, read-out: IC50 inhibition of HIV-1 replication
P-gp [3] = conditions: brain; cited from earlier work

T1 sequence (P08183 whole entry): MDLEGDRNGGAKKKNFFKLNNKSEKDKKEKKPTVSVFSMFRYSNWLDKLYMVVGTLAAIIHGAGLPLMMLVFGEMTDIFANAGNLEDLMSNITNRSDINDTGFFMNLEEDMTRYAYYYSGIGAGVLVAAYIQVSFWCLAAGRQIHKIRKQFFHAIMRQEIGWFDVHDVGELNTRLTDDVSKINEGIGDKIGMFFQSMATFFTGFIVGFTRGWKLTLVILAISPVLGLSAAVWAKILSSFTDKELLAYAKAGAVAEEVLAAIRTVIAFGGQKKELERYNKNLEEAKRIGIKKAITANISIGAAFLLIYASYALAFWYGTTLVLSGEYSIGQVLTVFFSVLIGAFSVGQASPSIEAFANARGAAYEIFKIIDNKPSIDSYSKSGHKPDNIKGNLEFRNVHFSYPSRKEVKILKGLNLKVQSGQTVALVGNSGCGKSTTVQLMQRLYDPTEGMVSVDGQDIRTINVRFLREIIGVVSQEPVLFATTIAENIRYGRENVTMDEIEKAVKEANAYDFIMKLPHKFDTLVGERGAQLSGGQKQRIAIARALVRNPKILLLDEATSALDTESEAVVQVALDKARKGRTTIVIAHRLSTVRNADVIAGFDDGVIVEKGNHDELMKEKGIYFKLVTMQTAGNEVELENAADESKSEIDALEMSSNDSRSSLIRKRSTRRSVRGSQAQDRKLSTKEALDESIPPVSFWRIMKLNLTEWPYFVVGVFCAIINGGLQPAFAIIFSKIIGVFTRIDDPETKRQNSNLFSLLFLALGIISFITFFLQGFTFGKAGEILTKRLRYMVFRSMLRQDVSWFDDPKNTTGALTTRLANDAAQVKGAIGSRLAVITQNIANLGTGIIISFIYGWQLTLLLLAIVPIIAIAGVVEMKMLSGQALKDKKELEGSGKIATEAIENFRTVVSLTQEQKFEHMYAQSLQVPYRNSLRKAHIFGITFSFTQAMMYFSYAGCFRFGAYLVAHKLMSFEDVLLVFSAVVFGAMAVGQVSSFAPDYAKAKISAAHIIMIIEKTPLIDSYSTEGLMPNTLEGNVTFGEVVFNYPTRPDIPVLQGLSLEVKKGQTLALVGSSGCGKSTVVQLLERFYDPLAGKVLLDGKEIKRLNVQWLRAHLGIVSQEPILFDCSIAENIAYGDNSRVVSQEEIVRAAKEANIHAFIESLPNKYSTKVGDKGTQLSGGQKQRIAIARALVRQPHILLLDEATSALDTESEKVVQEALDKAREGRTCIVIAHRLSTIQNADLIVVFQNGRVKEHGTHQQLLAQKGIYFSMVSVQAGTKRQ

SMILES: Nc1nc(NC2CC2)c2ncn([C@H]3C=C[C@@H](CO)C3)c2n1 [abacavir]
- IC50 (P-gp [1]): > 500 µM
- Inhibition of P-gp mediated efflux of fluorescent substrates (P-gp [1]; 12D7-MDR cells, at a concentration of 500 µM): only minimally effective
- IC50 (P-gp [2]): > 100 µM
- IC50 (HIV-1LAI): ~0.6 µM
- Increased levels in the brains of dosed P-gp-null mice versus dosed wild-type mice (P-gp [3]): 20 fold
